Key:
[1] = tested on: tenia caecum; experiment: Calcium antagonizing action in the tenia caecum; type: cell-based, guinea pigs; details: 30 minutes incubation, calcium chloride-induced contraction
Method: The calcium antagonizing activity in the tenia caecum was measured according to the method of M. Spedding [Naunyn-Schmiedeberg's Arch. Pharmacol. 318, 234-240(1982)]. Male guinea pigs weighing 250 to 300 g were laparotomized under pentobarbital anesthesia and the tenia was immediately removed from the caecum. The tenia was cut into strips of 6-7 cm length and suspended in a Magnus vessel filled with 20 ml of Tyrode's solution without calcium aerated with a mixed gas (O2 95%-CO2 5% by volume). After the specimen had eguilibrated by standing for 1 hour under the above conditions, 0.2 ml each of 30, 100 and 300 mM aqueous calcium chloride solutions were cumulatively added at 3 minute intervals and the contraction of the specimen was measured. After the measurements, the specimen was washed twice with Tyrode's solution without calcium and left for 30 minutes. The specimen was then incubated with Leualacin for 30 minutes, after which 0.2 ml each of 30, 100 and 300 mM calcium chloride solutions were cumulatively added at 3 minute intervals in the same manner as above, and the contraction was again measured. The contraction after the treatment with the Leualacin solution was deducted from that after the treatment with the calcium chloride solution alone and the value obtained was divided by the contraction after the treatment with the calcium chloride solution alone, to give the antagonizing rate.

[2] = tested on: mice; experiment: Acute toxicity; type: in vivo; details: orally, 200 mg/kg
Method: No toxicity was noted when Leualacin was orally administered to mice at a dose of 200 mg/kg, which is far in excess of any reasonable therapeutic dose.

[3] = tested on: SHR (spontaneously hypertensive rats); experiment: Antihypertensive activity in SHR; type: in vivo; details: conscious male SHR
Method: Male SHR (spontaneously hypertensive rats), 15 weeks old, were anesthetized with sodium pentobarbital (50 mg/kg intraperitoneally). and a polyethylene cannula was inserted through the left femoral artery into the abdominal aorta. The other end of the cannula was led out of the body and fixed at the back of the neck. One week after the operation, when the animal had recovered from the stress of the surgery, the other end of the cannula was connected to a blood pressure transducer, which was constructed according to the directions of Laffan et al. [Laffan, P. J., Peterson A., Hitch S. W. and Jeunelot C., Cardiovascular Res. 6, 319-324 (1972)], but with slight modifications. The blood pressure and heart rate of the conscious and unstressed SHR were measured. After the blood pressure and the heart rate had stabilised for more than one hour, the test drug was administered by gavage. After administration of the test sample, the blood pressure and the heart rate were measured every 15 minutes over a […] is shown in Table 2.

[4] = target: T1, calcium channel (3H-nitrendipine binding to microsome fraction prepared from porcine heart) (Sus scrofa, UniProt A0A8W4FNC0); experiment: Radioligand binding assay: inhibition of 3H-nitrendipine binding to microsomes; details: 200 PM 3H-nitrendipine, 25° C., 30 minutes, pH 7.4, read-out: ID50, inhibition of binding of 3H-nitrendipine to microsomes (converted)
T1 construct: 15 to 20 μg of a microsome fraction prepared from porcine heart; from tissue; host or cells: porcine heart microsome fraction
Source text: The progress of the cultivation and the amount of Leualacin produced as the culture proceeds can be determined by a radio ligand binding assay method, that is, for example, the method of […] and R. E. Oswald [Journal of Biological Chemistry, 260, 8456-8464 (1985)] which is based on the ability of Leualacin to inhibit the binding of ^3 H-nitrendipine to microsomes. High performance liquid chromatography may also be used. […] This experiment used a radioligand binding assay method, which is a modification of the method of […] and R. E. Oswald [Journal of Biological Chemistry, 260, 8456-8464 [(1985)], to determine the activity which inhibits the binding of ^3 H-nitrendipine to microsomes. The reaction was carried out at 25° C. for 30 minutes in 1 ml of a reaction mixture comprising 15 to 20 μg of a microsome fraction prepared from porcine heart, 200 PM ^3 H-nitrendipine (NEN-Dupont Pharmaceuticals, specific activity 88.1 Ci/mM), 50 mM NaOH-HEPES buffer (pH 7.4) and 0.5% by volume ethanol. (HEPES is N-2-hydroxyethylpiperazine-N'-2-ethanesulfonic acid). […] The glass-fibre filter was then put in a vial and OPTIFLUOR (Packard Co., Ltd.) was used as the scintillator and the radioactivity (as disintegrations per minute) was measured.

[5] = Chemical and physical properties: description and solubility; type: physicochemical
Source text: Leualacin has the molecular structure shown above and the following chemical and physical properties: […]

T1 sequence (A0A8W4FNC0 1-2067): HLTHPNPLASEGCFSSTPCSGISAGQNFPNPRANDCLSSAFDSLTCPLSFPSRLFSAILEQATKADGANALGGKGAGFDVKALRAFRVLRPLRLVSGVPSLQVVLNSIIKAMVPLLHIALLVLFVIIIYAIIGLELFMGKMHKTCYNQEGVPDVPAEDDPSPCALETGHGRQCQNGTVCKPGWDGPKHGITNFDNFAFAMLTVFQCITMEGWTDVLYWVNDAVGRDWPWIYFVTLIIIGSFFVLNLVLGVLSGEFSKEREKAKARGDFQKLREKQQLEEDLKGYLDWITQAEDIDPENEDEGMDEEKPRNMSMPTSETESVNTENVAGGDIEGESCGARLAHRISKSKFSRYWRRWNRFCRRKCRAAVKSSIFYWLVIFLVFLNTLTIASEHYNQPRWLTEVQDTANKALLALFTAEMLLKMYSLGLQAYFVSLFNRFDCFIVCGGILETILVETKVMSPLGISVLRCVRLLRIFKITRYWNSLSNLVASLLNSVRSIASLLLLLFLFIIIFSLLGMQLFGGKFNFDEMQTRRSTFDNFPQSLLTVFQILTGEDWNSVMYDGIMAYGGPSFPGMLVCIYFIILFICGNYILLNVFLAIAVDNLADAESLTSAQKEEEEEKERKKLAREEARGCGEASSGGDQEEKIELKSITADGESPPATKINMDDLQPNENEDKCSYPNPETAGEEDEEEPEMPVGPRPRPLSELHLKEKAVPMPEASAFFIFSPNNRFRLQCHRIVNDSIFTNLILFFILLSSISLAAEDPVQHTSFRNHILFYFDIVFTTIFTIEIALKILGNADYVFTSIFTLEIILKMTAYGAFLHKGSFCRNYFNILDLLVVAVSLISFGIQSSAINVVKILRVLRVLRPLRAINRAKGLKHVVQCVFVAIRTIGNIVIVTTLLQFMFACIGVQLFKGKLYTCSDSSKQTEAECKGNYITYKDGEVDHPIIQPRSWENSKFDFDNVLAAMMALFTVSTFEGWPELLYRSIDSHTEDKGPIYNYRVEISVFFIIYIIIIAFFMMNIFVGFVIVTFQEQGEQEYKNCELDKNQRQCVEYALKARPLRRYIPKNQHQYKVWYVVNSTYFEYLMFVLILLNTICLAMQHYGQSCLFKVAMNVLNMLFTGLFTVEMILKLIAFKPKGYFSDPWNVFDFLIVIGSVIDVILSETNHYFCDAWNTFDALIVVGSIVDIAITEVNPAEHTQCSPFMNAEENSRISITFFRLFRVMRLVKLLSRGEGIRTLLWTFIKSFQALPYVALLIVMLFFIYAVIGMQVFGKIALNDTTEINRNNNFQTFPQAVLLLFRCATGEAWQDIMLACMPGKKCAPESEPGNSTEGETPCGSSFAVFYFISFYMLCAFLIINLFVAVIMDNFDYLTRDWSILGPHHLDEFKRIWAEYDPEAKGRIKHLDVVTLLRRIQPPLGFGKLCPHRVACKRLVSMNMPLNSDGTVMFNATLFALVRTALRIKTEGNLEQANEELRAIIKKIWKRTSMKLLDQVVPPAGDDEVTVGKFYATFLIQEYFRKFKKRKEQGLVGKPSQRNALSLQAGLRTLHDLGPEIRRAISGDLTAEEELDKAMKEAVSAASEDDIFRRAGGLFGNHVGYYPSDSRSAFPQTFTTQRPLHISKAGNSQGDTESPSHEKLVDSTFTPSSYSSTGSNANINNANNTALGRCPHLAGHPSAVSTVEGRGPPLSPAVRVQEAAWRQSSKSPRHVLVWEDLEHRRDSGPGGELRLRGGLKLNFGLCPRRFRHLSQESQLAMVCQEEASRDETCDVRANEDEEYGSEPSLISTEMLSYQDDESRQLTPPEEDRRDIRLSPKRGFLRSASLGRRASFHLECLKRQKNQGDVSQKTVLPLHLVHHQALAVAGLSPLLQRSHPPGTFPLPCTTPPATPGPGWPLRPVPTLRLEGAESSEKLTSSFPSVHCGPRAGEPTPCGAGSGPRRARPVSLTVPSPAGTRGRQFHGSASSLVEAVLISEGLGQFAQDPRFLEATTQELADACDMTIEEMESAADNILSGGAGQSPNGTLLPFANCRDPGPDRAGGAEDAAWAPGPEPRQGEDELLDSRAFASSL

CC(C)CC1NC(=O)C(CC(C)C)OC(=O)CCNC(=O)C(Cc2ccccc2)N(C)C(=O)C(CC(C)C)OC1=O (centres unmarked) [Leualacin, 11-benzyl-2,5,8-triisobutyl-10-methyl-1,7-dioxa-4,10,13-triazacyclohexadec ane-3,6,9,12,16-pentone]
Antagonizing rate (%) ([1]; Leualacin 10^-6 g/ml): 97%
Antagonizing rate (%) ([1]; Leualacin 10^-7 g/ml): 73%
Antagonizing rate (%) ([1]; Leualacin 10^-8 g/ml): 22%
Antagonizing rate (%) ([1]; Leualacin 10^-9 g/ml): 0%
Acute toxicity [2]: No toxicity
Decrease of blood pressure (mmHg) ([3]; 100 μg/kg by gavage): 44 mmHg
Decrease of blood pressure (mmHg) ([3]; 300 μg/kg by gavage): 57 mmHg
IC50 [4]: 1730 nM
Description [5]: neutral, fat-soluble
Solubility in organic solvents ([5]; methanol, acetone, chloroform and ethyl acetate): Soluble
Solubility in water ([5]; water): insoluble
